Source: article PMC9804871, “Effect of Opicapone on Levodopa Pharmacokinetics in Patients with Fluctuating Parkinson's Disease” (Movement Disorders, 2022)

Test system: patients with PD and end-of-dose motor fluctuations
Assay: 12-hour patient on/off monitoring on pharmacokinetics days
Type: in vivo, human (patients with PD)
Settings: for OFF-time / ON-time / ON-time With Dyskinesia / ON-time Without Dyskinesia / Time to Best-ON / Time to ON: mean; for 12-hour OFF-time / 12-hour ON-time / 12-hour ON-time With Dyskinesia / 12-hour ON-time Without Dyskinesia / 12-hour Time to Best-ON / 12-hour Time to ON: mean (SD)
Experimental: Clinical and safety/tolerability outcomes were also assessed as exploratory secondary outcomes. Clinical outcomes included on and off time assessed using patient‐rated tools. The timing of on and off states was registered (in real time) by the investigators during the matching 12‐hour pharmacokinetic evaluation (as such applied on pharmacokinetics days only), and patients also completed 24‐hour patient Hauser on/off diary charts[21] (in 30‐minute blocks) during the 3 days before each pharmacokinetic visit. Diary states of interest were off time and on time, including on without dyskinesia, on with nontroublesome dyskinesia, and on with troublesome dyskinesia. In addition, the Patient Global Impression of Change (PGI‐C) of opicapone 50 mg was evaluated at the end of the LD/CD 400/100 mg plus opicapone treatment compared with before the start of opicapone treatment.[22] Safety and tolerability endpoints included treatment‐emergent adverse events (TEAEs), serious TEAEs, and TEAEs leading to discontinuation.
Clinical outcomes are also presented descriptively. A paired t test was used for the comparison of 12‐hour off and on time, 24‐hour off and on time, time to on, and time to best on between each opicapone‐containing regimen and the regimen without opicapone. Estimates of mean difference and corresponding 90% CIs were reported for all main variables.

[1] = 5-intake LD/CD 500/125mg vs 4-intake LD/CD 400/100mg plus OPC 50mg, 1st LD/CD intake
[2] = 5-intake LD/CD 500/125mg vs 4-intake LD/CD 400/100mg plus OPC 50mg, 2nd LD/CD intake
[3] = 5-intake LD/CD 500/125mg vs 4-intake LD/CD 400/100mg plus OPC 50mg, 3rd LD/CD intake
[4] = 5-intake LD/CD 500/125mg vs 4-intake LD/CD 400/100mg plus OPC 50mg, 4th LD/CD intake
[5] = 5-intake LD/CD 500/125mg vs 4-intake LD/CD 400/100mg plus OPC 50mg
[6] = 5-intake LD/CD 500/125mg vs 5-intake LD/CD 400/100mg plus OPC 50mg, 1st LD/CD intake
[7] = 5-intake LD/CD 500/125mg vs 5-intake LD/CD 400/100mg plus OPC 50mg, 2nd LD/CD intake
[8] = 5-intake LD/CD 500/125mg vs 5-intake LD/CD 400/100mg plus OPC 50mg, 3rd LD/CD intake
[9] = 5-intake LD/CD 500/125mg vs 5-intake LD/CD 400/100mg plus OPC 50mg, 4th LD/CD intake
[10] = 5-intake LD/CD 500/125mg vs 5-intake LD/CD 400/100mg plus OPC 50mg
[11] = five-intake levodopa/carbidopa 500/125 mg vs five-intake levodopa/carbidopa 400/100 mg plus opicapone 50 mg, N 9
[12] = five-intake levodopa/carbidopa 500/125 mg vs four-intake levodopa/carbidopa 400/100 mg plus opicapone 50 mg, N 10
[13] = five-intake levodopa/carbidopa 500/125 mg vs four-intake levodopa/carbidopa 400/100 mg plus opicapone 50 mg, N 12

levodopa/carbidopa [LD/CD]
OFF-time [1]: 79.8 min
ON-time [1]: 100.3 min
ON-time With Dyskinesia [1]: 45.0 min
ON-time Without Dyskinesia [1]: 92.8 min
Time to Best-ON [1]: 55.0 min
Time to ON [1]: 38.9 min
OFF-time [2]: 106.9 min
ON-time [2]: 73.1 min
ON-time With Dyskinesia [2]: 23.3 min
ON-time Without Dyskinesia [2]: 67.3 min
Time to Best-ON [2]: 58.8 min
Time to ON [2]: 50.0 min
OFF-time [3]: 89.5 min
ON-time [3]: 90.5 min
ON-time With Dyskinesia [3]: 23.8 min
ON-time Without Dyskinesia [3]: 81.8 min
Time to Best-ON [3]: 62.0 min
Time to ON [3]: 40.5 min
OFF-time [4]: 84.6 min
ON-time [4]: 91.3 min
ON-time With Dyskinesia [4]: 22.5 min
ON-time Without Dyskinesia [4]: 87.5 min
Time to Best-ON [4]: 57.9 min
Time to ON [4]: 42.1 min
12-hour OFF-time [5]: 353.3 (80.46) min
12-hour ON-time [5]: 347.5 (92.53) min
12-hour ON-time With Dyskinesia [5]: 60.0 (45.14) min
12-hour ON-time Without Dyskinesia [5]: 322.5 (106.27) min
12-hour Time to Best-ON [5]: 59.22 (14.92) min
12-hour Time to ON [5]: 46.14 (12.38) min
OFF-time [6]: 88.5 min
ON-time [6]: 91.5 min
ON-time With Dyskinesia [6]: 33.8 min
ON-time Without Dyskinesia [6]: 79.2 min
Time to Best-ON [6]: 62.7 min
Time to ON [6]: 41.5 min
OFF-time [7]: 103.0 min
ON-time [7]: 77.0 min
ON-time With Dyskinesia [7]: 27.5 min
ON-time Without Dyskinesia [7]: 71.5 min
Time to Best-ON [7]: 51.7 min
Time to ON [7]: 36.0 min
OFF-time [8]: 86.5 min
ON-time [8]: 93.5 min
ON-time With Dyskinesia [8]: 31.7 min
ON-time Without Dyskinesia [8]: 74.5 min
Time to Best-ON [8]: 50.0 min
Time to ON [8]: 44.5 min
OFF-time [9]: 96.0 min
ON-time [9]: 81.0 min
ON-time With Dyskinesia [9]: 27.5 min
ON-time Without Dyskinesia [9]: 75.5 min
Time to Best-ON [9]: 57.5 min
Time to ON [9]: 52.5 min
12-hour OFF-time [10]: 348.1 (103.9) min
12-hour ON-time [10]: 320.1 (83.80) min
12-hour ON-time With Dyskinesia [10]: 72.5 (24.24) min
12-hour ON-time Without Dyskinesia [10]: 280.5 (71.44) min
12-hour Time to Best-ON [10]: 55.46 (14.86) min
12-hour Time to ON [10]: 43.13 (11.32) min
12-h off time, geometric mean (90% CI) [11]: 376.9 (349.9, 406.0) min
12-h on time, geometric mean (90% CI) [11]: 333.1 (298.8, 371.2) min
12-h time to on, geometric mean (90% CI) (five-intake levodopa/carbidopa 500/125 mg vs five-intake levodopa/carbidopa 400/100 mg plus opicapone 50 mg, N 10): 41.84 (36.03, 48.59) min
12-h time to best on, geometric mean (90% CI) (five-intake levodopa/carbidopa 500/125 mg vs five-intake levodopa/carbidopa 400/100 mg plus opicapone 50 mg, N 12): 53.97 (47.84, 60.89) min
12-h off time, geometric mean (90% CI) [12]: 356.4 (313.2, 405.5) min
12-h on time, geometric mean (90% CI) [12]: 340.3 (292.0, 396.7) min
12-h time to best on, geometric mean (90% CI) [13]: 57.62 (50.84, 65.31) min
12-h time to on, geometric mean (90% CI) [13]: 44.62 (38.75, 51.39) min
